We go through 92 molecules from PubChem BioAssay AID1508591.

Bounds are passed on as bounds.

For the data set the following is noted: rat; liver microsomes; pH 7.4; 15.0 min; 1.0 µM.
Molecule `Fc1ccc(F)c(Nc2nc(-c3ccncc3)nc3ccccc23)c1` gave a half-life of 10 min.
Under `O=C(Nc1nc(-c2ccccn2)cs1)c1cccc(S(=O)(=O)N2CCOCC2)c1` stands 8.47 min; under `CCN(CC)C(=O)c1ccc(O)c(OC)c1`, greater than 30 min; under `Cc1cc(/C=C2/C(=O)Nc3ccccc32)cc(C)c1O`, 11 min.
The figure for `COc1ccccc1Nc1ccnc(N2CCN(C(=O)c3ccc(C)cc3)CC2)n1` is 5.68 min; for `CCOc1ccc(CCNC(=O)c2cc3sccc3n2CCN2CCN(C)CC2)cc1OCC` it is 6.2 min; for `CCCCCCCC/C=C\CCCCCCCC(=O)NCCO` it is 2.33 min.
Under `CCc1ccc(C(=O)Nc2cc(CN3CCN(C)CC3)cc(C(F)(F)F)c2)cc1C#Cc1cnc2ccnn2c1` stands greater than 30 min.
The molecule `COc1cccc(O)c1CNc1ccc(S(=O)(=O)Nc2nccs2)cc1` came in with a half-life of 8.9 min.
The figure for `Cc1nnc2n1-c1ccc(Cl)cc1C(c1ccccc1)=NC2` is 21.2 min; for `O=C(C1CC(=O)N(c2n[nH]c3ccccc23)C1)N1CCC(c2noc3cc(F)ccc23)CC1` (configuration not stated) it is 19.1 min; for `O=C(Nc1nc(-c2ccccc2)cs1)c1ccncc1NS(=O)(=O)c1ccc(N2CCCC2=O)cc1` it is 1.6 min.
Regarding `COc1cccc(S(=O)(=O)Nc2cnccc2C(=O)Nc2nc(-c3ccccc3)cs2)c1`, the half-life was determined as 6.7 min.
The figure for `CN(C)c1ccc(CN2CCNc3cc(Nc4ccccc4)ncc3C2)cc1` is 2.01 min; for `CCOC(=O)CCNc1cc(N2CCc3ccccc3CC2)nc(-c2ccccn2)n1` it is 1.5 min.
The figure for `CNc1oc(-c2ccccc2-c2ccccc2)nc1C#N` is 5.8 min; for `Cc1ccc(-c2cc(C(=O)Nc3ccc(S(=O)(=O)NCc4nccs4)cc3)c3ccccc3n2)cc1C` it is 5.8 min.
Regarding `Cc1cc(F)ccc1S(=O)(=O)Nc1cnccc1C(=O)Nc1nc(-c2ccccc2)cs1`, the half-life is 20 min.
The figure for `C1CCc2nc3c(nc2C1)CCCC3` is greater than 30 min.
The figure for `CNc1nc(C#N)c(-c2cccc3ccccc23)o1` is 4.8 min; for `Cc1cc(C)nc(NC(=S)N2CCN(c3ccc(Cl)cc3[N+](=O)[O-])CC2)c1` it is 15 min.
Under `O=C(O)c1cnc(-c2ccc(F)cc2)nc1-c1ccncc1` stands greater than 30 min; under `O=c1c2c([nH]c3ccc(Br)cc13)CCCC2`, 15.9 min.
The molecule `CN(Cc1ccc(/C=C/C(=O)NO)cc1)CC12CC3CC(CC(C3)C1)C2` showed a half-life of 2.89 min.
Molecule `CCOC(=O)c1ccc(-c2ccc3ncnc(NCCc4cnc[nH]4)c3c2)o1` gave a half-life greater than 30 min.
Molecule `CC(C)c1ccccc1-c1ncc(F)c(NC2(c3ccc(-c4cccnc4)cc3)CC2)n1` had a half-life of 8.9 min.
As to `NC(=O)C1CCN(c2nc(-c3ccc(F)cc3)cs2)CC1`, the half-life turned out to be 7.09 min.
As to `O=C(Nc1cc(C(F)(F)F)ccc1N1CCOCC1)c1n[nH]c(=O)c2ccccc12`, the half-life is greater than 30 min.
The figure for `CCOc1ccc(-c2csc(N3CCC(C(N)=O)CC3)n2)cc1` is 9.24 min; for `O=C(c1nc(-c2cccnc2)c2ccccn12)N1CCN(c2ncccn2)CC1` it is 8.43 min; for `CC(C)c1ccccc1-c1ncc(F)c(NCc2ccc(-c3ccn[nH]3)cc2)n1` it is 2.8 min.
`C[C@]12CC[C@@H]3[C@H](CCC4=CC(=O)CC[C@]43C)[C@]1(O)CC[C@@]2(O)C(=O)CO`: the half-life worked out at 20.9 min.
`CC(=O)c1c(C)[nH]c(C(=O)Nc2cccc(S(=O)(=O)Nc3ccc(Br)cc3)c2)c1C` displayed a half-life of 18 min.
The figure for `COc1ccc(OCc2ccc(-c3nc(C#N)c(NC(C)c4ccccc4)o3)o2)cc1` (configuration not stated) is 4.14 min.
Turning to `Cc1ccc(NC(=O)N(Cc2cn(C)c3ccccc23)C2CCCCC2)cc1C`, the half-life amounted to 1.95 min.
On to `O=C(Nc1ccccc1)C1CCN(c2nc(-c3ccc(Br)cc3)cs2)CC1`, for which the half-life is 1.53 min.
Under `Fc1cc(-c2nc(Nc3ccc(F)c(F)c3)c3ccccc3n2)ccn1` stands greater than 30 min; under `CCCCCN(CCC12CC3CC(CC(C3)C1)C2)C(=O)NCCCc1ccncc1`, 3.7 min; under `O=C(Nc1ncc(Cc2cccc(C(F)(F)F)c2)s1)c1ccc(-c2cccc([N+](=O)[O-])c2)o1`, greater than 30 min.
`O=S(=O)(Nc1nccs1)c1ccc(NCc2cc(Cl)ccc2O)cc1`: the half-life is 11 min.
The figure for `Cc1ccc(NC2=C(c3ccc(C(F)(F)F)cc3)C(=O)c3ccccc32)cc1C` is 5.08 min; for `O=C(NC1CC1)c1nc(-c2cccnc2)c2cnccn12` it is greater than 30 min.
As for `CCc1ccc(NC(=O)[C@H](Cc2c[nH]c3ccccc23)NC(=O)[C@@H]2Cc3ccccc3CN2)cc1`, the half-life amounted to 2.32 min.
The figure for `COc1cccc(-n2ncc3c2CCCC3NC(=O)c2ccccn2)c1` (configuration not stated) is 11 min.
The figure for `CCN(CC)CCOc1ccc(Cc2ccccc2)cc1` is 1.73 min; for `COc1cc2c(Nc3ccc(Br)cc3F)ncnc2cc1OCC1CCN(C)CC1` it is greater than 30 min.
Under `Cc1ccc(S(=O)(=O)Nc2ccccc2C(=O)Nc2ncc(-c3ccccc3)o2)cc1` stands 3.5 min; under `CC(CNC(=O)C1CCN(Cc2cc3ccccc3n2Cc2ccccc2)CC1)c1ccccc1` (configuration not stated), 1.15 min.
The molecule `Cc1c(-c2cccc(NC(=O)c3ccc(F)c(F)c3)c2)nc2ncccn12` displayed a half-life of 12.6 min.
The figure for `Cc1ccc(-c2cc(C(=O)Nc3ccc(-c4noc(=O)[nH]4)cc3)c3ccccc3n2)cc1C` is greater than 30 min; for `O=C(Cc1ccccc1)Nc1ccc(S(=O)(=O)Nc2nccs2)cc1` it is greater than 30 min; for `CCOC(=O)c1ccc(N2C(=O)c3n[nH]c(-c4cccs4)c3C2c2ccc(Cl)cc2Cl)cc1` (configuration not stated) it is 20.1 min.
In the case of `CN(C)[C@@H]1CCN(c2cccc(Nc3nn4c(=O)c5ccccc5nc4s3)c2)C1`, the half-life is greater than 30 min.
Under `COc1ccccc1NS(=O)(=O)c1cccc(NC(=O)c2[nH]c(C)c(C(C)=O)c2C)c1` stands 4.7 min; under `COc1ncccc1-c1cc2c(ccn2C(C)C)c(C(=O)NCc2c(C)cc(C)[nH]c2=O)n1`, 5.49 min.
For the molecule `COc1cccc(Nc2ncc(-c3cccc(N(C)C)c3)c3c2OCC3)c1`, the half-life is 8.98 min.
As to `Cc1cc(-c2cc3c(nc2-c2ccccc2)nc(C(=O)NCCN(C)C)n3C)ccn1`, the half-life is greater than 30 min.
Regarding `CCOc1ccc(-c2cn3c(n2)sc2cc(C(=O)NCCCN(CC)CC)ccc23)cc1`, the half-life was greater than 30 min.
Under `O=S(=O)(Nc1cccc2ccncc12)c1ccc(NCc2cccc(Cl)c2O)cc1` stands 9.9 min.
`O=c1[nH]c(C2CCN(CC3CCCCC3)CC2)nn1Cc1ccccc1`: the half-life was found to be 25.3 min.
`CCOC(=O)C1CCN(C(=O)C(C)(C)NC(=O)Nc2ccc(-c3ccccc3)cc2)CC1` registered a half-life of 1.4 min.
Under `NC(=O)c1sc2nc3c(c(-c4cccs4)c2c1N)CCCC3` stands 2 min; under `COc1ccc(-n2c(C)c(C(C)=O)c3cc(O)ccc32)cc1`, 2.2 min.
`Cc1ccnc(NC(=S)N2CCN(c3ccc(Cl)c(Cl)c3)CC2)c1`: the half-life came to 24 min.
Under `NC(=O)C1CCN(c2nc(-c3ccc(Br)cc3)cs2)CC1` stands 2.06 min; under `Cc1nn(Cc2ccc(Cl)cc2)c(C)c1NC(=O)c1cc(-c2ccc3c(c2)OCO3)on1`, 6.4 min; under `NC1CCN(c2nc(-c3ccc(Br)cc3)cs2)CC1`, greater than 30 min.
The figure for `Cc1cc(-c2nc(Nc3ccc(F)c(F)c3)c3ccccc3n2)ccn1` is 22 min.
Take `COc1cc2c(cc1Oc1cccc(N(C)C)c1)NC(=O)C21CCN(c2cnccn2)CC1`: the half-life stood at 1.77 min.
The figure for `CCOc1ccc(CCNC(=O)c2cc3sccc3n2Cc2ccccc2)c(F)c1OCC` is 1.8 min; for `O=S(=O)(Nc1ccc(-c2ccccc2)cc1)c1ccc(NCc2cccc(Cl)c2O)cc1` it is 5.6 min.
Under `CCOc1ccccc1C(=O)Nc1ccccc1C(=O)Nc1cccc(S(=O)(=O)C(F)(F)F)c1` stands greater than 30 min; under `CCCCNc1oc(-c2cccc3ccccc23)nc1C#N`, 5.78 min; under `CCCCCn1c(=O)[nH]c2cc(C(=O)NCCCN3CCCCC3)ccc2c1=O`, greater than 30 min.
The figure for `O=C(Cc1n[nH]c(=O)c2ccccc12)NC1CCCc2c1[nH]c1c(Cl)cccc21` (configuration not stated) is 8.05 min.
For `CC(C)Oc1cccc(-c2cnc(N3CCC(C(N)=O)CC3)s2)c1`, the half-life amounted to 23 min.
The figure for `C[C@@]1(O)[C@H](O)[C@@H](CO)O[C@H]1n1ccc(N)nc1=O` is greater than 30 min.
Under `COc1ccccc1CNC(=O)CCCn1nc(C)c2c(C)n(-c3ccc(C)cc3)nc2c1=O` stands 3.45 min; under `Cc1cccc(S(=O)(=O)Nc2cnccc2C(=O)Nc2nc(-c3ccccc3)cs2)c1`, 6 min; under `COc1ccccc1N1CCN(c2ccc3cc(S(=O)(=O)N4CCCCC4)ccc3n2)CC1`, 2.16 min.
As to `Cc1ccc(-c2cc(C(=O)Nc3ncco3)c3ccccc3n2)cc1C`, the half-life came to 5.7 min.
As to `CCOc1ccc(CCNC(=O)c2cc3ccccc3o2)cc1OCC`, the half-life is 1.6 min.
In turn, `CCCCOc1ccc(C(=O)N2CCC(c3n[nH]c(=O)n3-c3ccc(C)cc3)CC2)cc1` displayed a half-life of 5.43 min.
The figure for `c1ccc(-c2cc(Nc3nc(-c4ccncc4)nc4ccccc34)n[nH]2)cc1` is 11 min; for `O=C(O)c1ccc(O)c2ncc(N3CCCN(CCc4cccc5ccccc45)CC3)cc12` it is greater than 30 min.
In the case of `O=C(Nc1cccc(C(F)(F)F)c1)c1ccccc1NC(=O)C1CCCCC1`, the half-life was 25 min.
Take `CN(C(=O)CSc1nc2ccc(NC(=O)c3ccc(F)cc3)cc2s1)c1ccccc1`: the half-life is 2.04 min.
Under `Cc1ccnc(NC(=S)N2CCN(c3cc(Cl)cc(Cl)c3)CC2)c1` stands greater than 30 min; under `O=C1C(c2ccc(C(F)(F)F)cc2)=C(Nc2ccc(Cl)cc2)c2ccccc21`, 29.2 min.
The figure for `CNc1nc(-c2ccc3c(N)n[nH]c3c2)cc(N2C[C@@H](C(=O)NC3CCCCC3)CC[C@@H]2C)n1` is 1.85 min; for `CC[C@H]1CN(C)[C@H]2Cc3c([nH]c4ccccc34)C(=O)C[C@H]1[C@H]2C(=O)OC` it is 11.3 min; for `Cc1ccc(S(=O)(=O)Nc2cnccc2C(=O)Nc2nc(-c3cc4ccccc4o3)cs2)cc1` it is 20 min.
